For data set [1], the system named is T cells. Kind of data set: Inhibition of T cell proliferation (antigen PPD induced, [3H]thymidine incorporation). Type of data set: cell-based. To be noted: PPD (10 μg/ml), 144 hours culture, mean of triplicate cultures. How it is done:
The chemical compounds used according to the invention prevent immunological proliferation by selective inhibition of the Ca^2+-activated K-channels in T- and B-lymphocytes. This effect may be verified using various proliferation assays. In this experiment the proliferative assay described by Ødum et al [Ødum N, Kanner S B, Ledbetter J A, & Svejgaard A; J. Immunol. 1993 150 (12) 5289-5298] was used.
Assays were performed in culture medium (RPMI 1640; available from Gibco, Grand Island, N.Y.) supplemented with 10% pooled human serum, 2 mM L-glutamine, 100 μg/ml penicillin, and 100 μg/ml streptomycin (available from Novo Nordisk, Copenhagen, Denmark) in 96-well round bottom tissue culture plates (available from Nunc, Roskilde, Denmark) with a final volume of 200 μl.
T cells were pre-incubated for three hours with the test compounds before addition of antigen (PPD, purified protein derivative, 10 μg/ml). T cells were cultured at 5×10^4 cells/well for 144 hours. Twelve hours before harvest, [^3H]thymidine ([…]) was added. The cells were harvested onto glass fibre filters, and the [^3H]thymidine incorporation was measured in a scintillation counter. The results were expressed as mean counts per minute (cpm) from triplicate cultures.
On the technique in general: Incorporation of labelled thymidine or its analogues reports DNA synthesis.

As a reminder, the melting point is the temperature, or range, at which the solid turns liquid. `Cc1ccc(C)n1-c1c(-c2ccccc2)cc(Cl)cc1-c1ccccc1` showed a melting point of 178 to 180 °C.

For the compound `CC(C)c1cccc(C(C)C)c1-c1cccnc1` [Compound 1B, 3-(2,6-diisopropylphenyl)-pyridine], the figures for the “T Cell Proliferation” value in data set [1] (test compound 2.5 μM), in data set [1] (test compound 10 μM) and in data set [1] (test compound 25 μM) were 19.5 cpm × 10^−3, 19 cpm × 10^−3 and 14 cpm × 10^−3, respectively.

Source of the values: patent publication US20020065315A1, “Ion channel modulating agents” (priority 1999, published 2002).
